The text below walks through data of patent EP4512427A1, “ANTIBODY-DRUG CONJUGATES BASED ON MOLECULAR GLUE DEGRADERS AND USES THEREOF” (Mablink Bioscience, priority 2023, dated 2025).

“Also recorded” adds a separate entry of the source.

One series deals with HT-29. The series can be described thus: In vitro cytotoxicity assay (MTT). It counts as cell-based. The conditions noted are these: Homo sapiens, 144 h, 6 days incubation. An outline of the steps: (§1)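 Cells were seeded at 1000–10 000 cells/well depending on line, left 24 h at 37°C, then exposed to serial compound dilutions for 6 days at 37°C. MTT was added for 1–4 h, formazan dissolved in acidified isopropanol, absorbance read at 570 nm (reference 690 nm); IC50 versus untreated cells came from dose-response fits.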

Another series concerns OE-19. The series can be described thus: In vitro cytotoxicity assay (MTT). Format: cell-based. The conditions noted are these: Homo sapiens, OE19, 144 h, 6 days incubation. In a few lines: as §1
The next series concerns A549. The series can be described thus: In vitro cytotoxicity assay (MTT). Format: cell-based. The conditions noted are these: Homo sapiens, 144 h, 6 days incubation. An outline of the steps:
as §1

The test system of the next series is JIMT-1 cells. The series can be described thus: Cell cycle arrest assessment (propidium iodide). Format: cell-based, human. To be noted: 24h at 2, 5, 10, and 50nM. As to the method:
1×10^6 JIMT-1 cells were plated in 3mL of DMEM/FBS 90:10 (v/v) in 6-well plates and incubated overnight. Cells were treated with the compound 2384 of the invention or with CR8 for 24h. Cells were then harvested and washed three times with PBS. Cells were suspended into 300µL of propidium iodide working solution (0.05mg/mL) and incubated for 45 minutes at 4°C in the dark. Analysis was performed using a BD Fortessa flow cytometer controlled by BD FACSDiva software (BD Biosciences) and data were analyzed using FlowJo software (BD Bioscience).

Series [1] concerns cancerous human cell lines. The series can be described thus: In vitro cytotoxicity assay (MTT), side-by-side comparisons over the cell line panel. It counts as cell-based. The conditions noted are these: side-by-side comparison (Figures 1-3, Table 3), result in words. On the procedure:
In vitro cytotoxicity of compounds of the disclosure was assessed on several cancerous human cell lines. Cells were plated in 96-well plates at an appropriate density depending on the cell line (between 1000 and 10 000 cells/well in 100µL of appropriate culture media) and incubated at 37°C for 24 hours. Serial dilutions of the tested compound previously dissolved in culture media (50µL) were added, and incubation was carried at 37°C out for 6 days. MTT (5mg/mL in PBS, 20µL, Sigma-Aldrich) was added into the wells, and incubation was continued for 1 to 4 hours at 37°C. Culture media was then carefully removed, and well content was homogeneously dissolved with acidified isopropanol. Absorbance values were measured on a microplate reader using a wavelength of 570 nm (with a reference wavelength of 690 nm). The IC50 concentration values compared to untreated control cells were determined using inhibition dose response curve fitting (GraphPad Prism 9). Exatecan mesylate (cat#HY-13631A) and CR8 (CAS# 294646-77-8; cat#HY-18340) were purchased from MedChemExpress (China).

The next series in a line: in vitro. To be noted: PAMPA, pH 7.4.
The test system of a further series is BT-474. The series can be described thus: In vitro cytotoxicity assay (MTT). It counts as cell-based, human. To be noted: Homo sapiens, BT-474, 144 h. An outline of the steps: as §1
Another series deals with MDA-MB-231. The series can be described thus: In vitro cytotoxicity assay (MTT). Format: cell-based, human. To be noted: Homo sapiens, 144 h, 6 days incubation. In a few lines: as §1
The test system of the next series is NCI-N87. The series can be described thus: In vitro cytotoxicity assay (MTT). It counts as cell-based, human. The conditions noted are these: Homo sapiens, 144 h, 6 days incubation. An outline of the steps: as §1
The subject of the next series is SKBR-3. The series can be described thus: In vitro cytotoxicity assay (MTT). It counts as cell-based, human. To be noted: Homo sapiens, SK-BR-3, 144 h, 6 days incubation. An outline of the steps: as §1
In a further series the test system is JIMT-1. The series can be described thus: In vitro cytotoxicity assay (MTT). Format: cell-based, human. The conditions noted are these: Homo sapiens, 144 h, 6 days incubation. An outline of the steps:
as §1

For another series, the system named is MDA-MB-453. The series can be described thus: In vitro cytotoxicity assay (MTT). To be noted: Homo sapiens, 144 h, 6 days incubation. Format: cell-based, human. An outline of the steps: as §1
A further series deals with CycK. The series can be described thus: CycK protein quantification by Western Blot. Format: cell-based, human. On the procedure: 1×10^6 JIMT-1 cells were plated in 3mL of DMEM/FBS 90:10 (v/v) in 6-well plates and incubated overnight. Cells were treated with the compound 2384 of the invention with or without the proteasome inhibitor MG-132 (MedChemExpress, Cat HY-13259) for 2h. Cells were harvested, and protein were extracted using complete RIPA buffer (RIPA buffer, 1 mM DTT, 1M NaF, 100 mM sodium orthovanadate, phosphatase inhibitor buffer and protease inhibitors) for 1 hour on ice. Lysate were centrifuged 15min at 12 000g at 4°C. and proteins were mixed with 4x Laemmli Sample Buffer (Bio-Rad), heated at 95 °C for 5 mins and separated by SDS PAGE (PROTEAN TGX Stain-Free Gels, Bio-Rad). Proteins were then transferred onto PVDF membrane (iBlot®2 PVDF stacks, Invitrogen) using the iBlot2 device (Invitrogen) and blocked with TBS buffer (Intercept® Blocking Buffer, LI-COR Biosciences). Primary antibodies were incubated overnight at 4°C and secondary antibodies (IRDye Infrared Dyes from LI-COR Biosciences) 1 hour at room temperature. Used primary antibody were: anti-CycK (cat#A301-939A, Bethyl Laboratories, dil. 1:1000) and anti-β-actin (cat#A5441, Sigma-Aldrich, dil. 1:5000). Membranes were scanned using a c500 Imaging System (Azure Biosystems) and densitometric quantification were performed using imaged software. Protein levels were normalized against β-actin.

Another series relates to 340 protein kinases. The series can be described thus: Kinase screening assay (radiometric 33PanQinase). It counts as biochemical, human. The conditions noted are these: 10 µM; most inhibited kinases: CMGC family, particularly CDKs (23 out of the 30 most inhibited were CDK/Cyclin complexes). On the procedure:
Compound 2384 according to the disclosure was subjected to kinase screening assays (performed at Reaction Biology, Germany). The screening assay was performed at a final compound concentration of 10 µM. A radiometric protein kinase assay (33PanQinase® ActivityAssay) was used for measuring the kinase activity of 340 protein kinases. All kinase assays were performed in 96-well FlashPlates™ from Perkin Elmer (Boston, MA, USA) in a 50 µL reaction volume. […] All PKC assays (except the PKC-mu and the PKC-nu assay) additionally contained 1 mM CaCl2, 4 mM EDTA, 5 µg/m! Phosphatidylserine and 1 µg/m! 1,2-Dioleyl-glycerol. The CAMK1D, CAMK2A, CAMK2B, CAMK2D, CAMK2G, CAMK4, CAMKK1, CAMKK2, DAPK2, EEF2K, MYLK, MYLK2 and MYLK3 assays additionally contained 1 µg/ml Calmodulin and 0.5 mM CaCl2. The PRKG1 and PRKG2 assays additionally contained 1 µM cGMP. The DNA-PK assay additionally contained 2.5 µg/ml DNA. The protein kinase reaction cocktails were incubated at 30°C for 60 minutes. The reaction was stopped with 50 µl of 2 % (v/v) H3PO4, plates were aspirated and washed two times with 200 µL 0.9 % (w/v) NaCl. Incorporation of 33Pi (counting of "cpm") was determined with a microplate scintillation counter (Microbeta, Wallac). All protein kinase assays were performed with a BeckmanCoulter Biomek 2000/SL robotic system. […]

For orientation: IC50 means the concentration at which inhibition is half-maximal. What is called Papp is the rate of passage across a membrane or cell layer, normalised by area and donor concentration. Low values mean poor permeation, high ones ready permeation. As for `N[C@H]1CC[C@H](Nc2nc(NCc3ccc(-c4ccccn4)cc3)n3ncc(Br)c3n2)CC1` [Compound 2384], the IC50 in the series on HT-29 was 0.22 nM; in the series on OE-19, 2.24 nM; with A549 it was 0.56 nM; in the series with BT-474, 0.94 nM; with MDA-MB-231 it was 0.38 nM; in the series with NCI-N87 it was 0.76 nM. For the same compound, the figures for the 50% inhibitory concentration (IC50) in the series with SKBR-3, in the series on JIMT-1 and in the series with MDA-MB-453 were 0.73 nM, 0.25 nM and 0.53 nM, respectively. The cell cycle analysis result with JIMT-1 cells is listed as “arrest in the G2/M phase”. Besides, in series [1], the “in vitro cytotoxicity potency” value was “more potent compared to its isopropyl counterpart; also recorded: drastically improved low nanomolar potencies”. The Papp at 5 h, 50 µM in the series “in vitro” amounted to 84 ×10⁻⁶ cm/s. In the series with CycK (10nM, 2h treatment of JIMT-1 cells), the CycK degradation entry is given as “complete CycK degradation”. Moreover, the CycK protein content result is “decreased CycK protein content” in the series on CycK (JIMT-1 cells, 1µM, 2h) and “restored the content in cycK protein” in the series with CycK (JIMT-1 cells, combination with the proteasome inhibitor MG-132, 2h). The “minimum effective dose for CycK degradation compared with CR8” value in the series on CycK (JIMT-1 cells, 2h) was “approximately 10 times lower”. In addition, in the series with 340 protein kinases, the “inhibition of kinase activity” value is given as “more than 90%”.
